This note sets out measurements from patent US20060099712A1, “Correlation of anti-cancer activity of dyes with redox potentials” (Eastman Kodak Company, priority 2004, published 2006).

Where “and” joins values, the source holds several entries; their conditions need not be identical. Identical values can stand only once. Like-named read-outs stand apart in the source and are kept apart here.

Assay [1] concerns CV-1 Normal Monkey Kidney Epithelial. The experiment in a line: Clonogenic dye screening assay, CV-1 cells (IC50). The class given is cell-based, African green monkey. The following applies: for CV (IC50 in the CV-1 cell line): 3 hrs treatment, unit from method b117-118; for IC50: Primates. The text has this: CX-1 is a cancerous human colon adenocarcinoma cell line. CV-1 is a non-cancerous control, which is a kidney epithelial cell line from an African green monkey. IC50 is the dye concentration at which 50% of the cells are killed. Selectivity or kill ratio is defined as the ratio of […] at IC50 for both CX-1 and CV-1. A ratio with a high number indicates a high selectivity.
The dyes were screened in two cell lines. CX-1 is a human colon adenocarcinoma cell line. CV-1 is a kidney epithelial cell line from an African green monkey. CV-1 was used as a reference because no normal human epithelial cell line is available for clonogenic assay.
In the initial screen, dyes were examined at six different concentrations to generate a dose response curve. An IC50 value, the concentration at which 50% of the cells are killed, was then calculated. Initially, a dye concentration of 1.0 μg/mL was the highest examined for the CX-1 cell line and 0.005 μg/mL was the lower limit. The corresponding limits on the CV-1 cell line were […].
The screening procedure used a response curve that was determined from eight dye concentrations. The upper and lower limits of CX-1 were 0.32 and 0.0015 μg/mL, respectively, and the corresponding revised limits on CV-1 were 3.2 and 0.025 μg/mL. The screening results were reported by assigning an IC50 value to each dye for the CV-1 and CX-1 cell lines. These values will be referred to herein simply as CV and CX. The most desirable result would be to have a dye that was highly toxic to carcinoma cells but nontoxic to ‘normal’ cells. One measure of this type of selectivity is the ratio of the IC50's in the normal cell line to that in the carcinoma line, CV/CX.
Compounds are screened via an in vitro assay. CV-1 and CX-1 cells are seeded into separate assay plates. The plates are treated with varying concentrations of test compounds, rinsed, and colonies allowed to grow. IC50's are determined and drugs evaluated based on their selectivity and toxicity. Assay Steps: • I. Seeding Cells • II. Weighing • III. Preparation of Solution • IV. Treatment • V. Rinsing and Feeding • VI. Fixing • VII. IC50 Determination I. Seeding Cells
The cells should be seeded 16-30 hours before treatment. The media for CV-1 cells is DME+5% calf serum +5% Nuserum. The media for CX-1 cells is RPMI/DME (50/50)+5% calf serum +5% Nuserum.
(c) number of cells based on 2000 CX-1 cells/well and 1000 CV-1 cells/well. NOTE: Always make enough cell suspension for 1 extra plate to allow for volume loss during transfers.
• (a) For CV-1: 256 ug/ml-256 ul of 1 mg/ml stock +744 ul DMSO • (b) For CX-1: 25.6 ug/ml-100 ul of 256 ug/ml+900 ul DMSO IV. Treatment • 1. Each plate is treated with 4 test compounds, one positive control and one negative control. • 2. Serial dilutions of the compounds are made in the following way:
2 multi-well pipetters are used. One is set for 10 ul and one for 200 ul. Each is equipped with 6 tips spaced such that they fit into the 6 rows of a plate. 390 ul of media is added to the first column of each plate. 10 ul each of 4 compound solutions, a positive and a negative control are taken up and put into the first column of wells. The 200 ul pipetter is then placed in the same wells, pipetted up and down 3 times and two 200 ul aliquots are moved to the next column of wells. This column is pipetted up and down 3 times and 400 ul moved to column 3, etc. The final 400 ul excess from column 8 is discarded.
• 3. Label the plates along the front, each row −1 compound. • 4. Incubate the plates at 37° C. for 3 hrs. V. Rinsing • 1. Prepare several bottles of CX-1 and CV-1 media. • 2. Check for precipitate in first column of each plate and note. • 3. Starting with the plates treated first, rinse several plates at a time by aspirating the treatments and refilling each well with 0.5-1.0 ml of the rinse media. Aspirate and refill 2 more times for a total of 3 rinses. • 4.

Assay [2] deals with CX-1 Human Colon Carcinoma. The experiment in a line: Clonogenic dye screening assay, CX-1 cells (IC50). The class given is cell-based. The arrangement: CX: unit not given here. The following applies: for CX (IC50 in the CX-1 cell line): 3 hrs treatment, unit from method b117-118; for CV/CX (selectivity, kill ratio): ratio of IC50 in normal CV-1 line to IC50 in carcinoma CX-1 line; for IC50: Homo sapiens; for CV/C: Table XXI, selectivity ratio, value of 1 where dye inactive. An outline of the steps: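 Cells seeded 16-30 h ahead (2000 CX-1 or 1000 CV-1 per well), exposed to serially diluted dyes for 3 h at 37 °C, rinsed three times, then grown into colonies. Eight-point curves spanned 0.32-0.0015 μg/mL (CX-1) and 3.2-0.025 μg/mL (CV-1). IC50 is the concentration killing 50% of cells.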

Where [3] appears, read: CV-1, 3 hrs treatment, colonies after 7-10 days, unit from method, read-out: CV (IC50 in the CV-1 cell line).
Setting [4] is: CX-1, 3 hrs treatment, colonies after 7-10 days, unit from method, read-out: CX (IC50 in the CX-1 cell line).
The mark [5] stands for this setting: CV-1, Table XXI, oxathiacarbocyanine nitrogen substituents, CV-1 cells, read-out: CV.
The mark [6] stands for this setting: CX-1, Table XXI, oxathiacarbocyanine nitrogen substituents, CX-1 cells, read-out: CX.
The mark [7] stands for this setting: Table XVI, selectivity ratio of IC50 values.
Where [8] appears, read: Table XVI, unsymmetrical dyes, CX-1 cells.

`CCN1/C(=C/C=C/c2oc3ccccc3[n+]2CC)Sc2cccc(-c3ccccc3)c21.[I-]` [Dye D-106]: in assay [1] (colonies after 7-10 days), the “CV (IC50 in the CV-1 cell line)” value came to 0.8 mg/L. Moreover, in assay [2] (colonies after 7-10 days), the “CX (IC50 in the CX-1 cell line)” value was 0.01 mg/L. Besides, the “CV/CX (selectivity, kill ratio)” value in assay [2] worked out at 80.
In the case of `CCN1C(=O)/C(=C\C=C2/Oc3ccccc3N2CC)S/C1=N\c1sc2ccccc2[n+]1CC` [Dye D-107], the values for the IC50 in assay [1] (setting [3]) and in assay [2] (setting [4]) were 3 mg/L and 0.05 mg/L, respectively. Further, the “CV/CX (selectivity, kill ratio)” value in assay [2] is on record as 60.
The matching figures for `CCN1/C(=c2/s/c(=c3\s/c(=C\c4ccc5ccccc5[n+]4CC)n(CC)c3=O)n(CC)c2=O)Sc2ccccc21` [Dye D-108]: 3.2 mg/L, 0.045 mg/L and 71.15.
For `CCN1/C(=C\C=c2\s/c(=C/c3sc4ccccc4[n+]3CC)n(C)c2=O)Sc2ccccc21` [Dye D-111], the IC50 stood at 8 mg/L in assay [1] (setting [3]) and 0.03 mg/L in assay [2] (setting [4]). For the same molecule, the “CV/CX (selectivity, kill ratio)” value in assay [2] is 270 and 266.7.
As for `CCN1/C(=C/C=C/c2sc3cc4ccccc4nc3[n+]2CC)Sc2ccc3ccccc3c21` [Dye D-114], the IC50 in assay [1] (setting [3]) amounted to 3 mg/L; in assay [2] (setting [4]), 0.05 mg/L. For the same molecule, in assay [2], the “CV/CX (selectivity, kill ratio)” value is on record as 60.
Take `C(=C\c1cc[n+]2c3c(cccc13)Sc1ccccc1-2)/C=c1\ccn2c3ccccc3sc3cccc1c3-2` [Dye D-117]: the IC50 in assay [1] (setting [3]) stood at 7 mg/L; in assay [2] (setting [4]), 0.1 mg/L. Moreover, in assay [2], the “CV/CX (selectivity, kill ratio)” value was determined as 70.
For the molecule `CC[n+]1c(/C=C/C=C2\SC=C(C)N2C)oc2ccccc21` [Dye D-120], the IC50 in assay [1] (setting [3]) came out at 5 mg/L; in assay [2] (setting [4]) it was 0.01 mg/L. In addition, the “CV/CX (selectivity, kill ratio)” value in assay [2] is 500.
On the same counts, the results for `CCN(CC)CCN1/C(=C/C(C)=C/c2sc3ccccc3[n+]2CCN(CC)CC)Sc2ccccc21` [Dye D-121] are 0.8 mg/L, 0.01 mg/L and 80.
`CC[n+]1c(/C=C/C=C2\Sc3ccccc3N2C(C)C)oc2ccccc21` [Dye D-122]: the IC50 in assay [1] (setting [3]) is 0.4 mg/L; in assay [1] (setting [5]), 0.4 mg/L; in assay [2] (setting [4]), below 0.005 mg/L; in assay [2] (setting [6]), below 0.005 mg/L. In addition, the CV/C in assay [2] is on record as above 80.0. Besides, the “CV/CX (selectivity, kill ratio)” value in assay [2] was 80 and >80.0.
As for `CCN1C=C(c2ccccc2)O/C1=C\C=C\c1sc2ccccc2[n+]1CC` [Dye D-123], the IC50 turned out to be 0.4 mg/L in assay [1] (setting [3]); 0.4 mg/L in assay [1] (CV-1, Table XVI, unsymmetrical dyes, CV-1 cells, read-out: CV); 0.005 mg/L in assay [2] (setting [4]); 0.005 mg/L in assay [2] (CX-1, Table XVI, unsymmetrical dyes, CX-1 cells, read-out: CX). Moreover, in assay [2] (setting [7]), the CV/CX is given as 80.0. Further, the “CV/CX (selectivity, kill ratio)” value in assay [2] is reported as 80.
Turning to `CC[n+]1c(/C=C/C=C2\Sc3ccccc3N2CC#N)oc2ccccc21` [Dye D-124], the IC50 is 10 mg/L in assay [1] (setting [3]), 10 mg/L in assay [1] (setting [5]), 0.1 mg/L in assay [2] (setting [4]) and 0.1 mg/L in assay [2] (setting [6]). In addition, the CV/C in assay [2] worked out at 100.0. Also, in assay [2], the “CV/CX (selectivity, kill ratio)” value worked out at 100.
`CCN1/C(=C/C=C/c2sc3ccccc3[n+]2CCO)Sc2ccccc21` [Dye D-125]: the IC50 is above 3.2 mg/L in assay [1] (setting [3]); above 3.2 mg/L in assay [1] (CV-1, Table XX, thiacarbocyanine nitrogen substituents, CV-1 cells, read-out: CV); 0.035 mg/L in assay [2] (setting [4]); 0.035 mg/L in assay [2] (CX-1, Table XX, thiacarbocyanine nitrogen substituents, CX-1 cells, read-out: CX). In assay [2] (Table XX, ratio given a value of 1 where dye inactive), the CV/CX stood at 91.4. Besides, the “CV/CX (selectivity, kill ratio)” value in assay [2] is recorded as above 91.4.
For the molecule `CCSC(=C\c1oc2ccccc2[n+]1C)/C=C1\Sc2ccccc2N1CC.[I-]` [Dye D-127], in assay [1] (colonies after 7-10 days), the “CV (IC50 in the CV-1 cell line)” value is 0.3 mg/L. For the same molecule, the “CV/CX (selectivity, kill ratio)” value in assay [2] is given as 60.
As for `CCN1C(=CC=Cc2oc3cc(C)c(Cl)cc3[n+]2CC)Oc2cc(C)c(Cl)cc21` [drawing 45|5-Cl, 6-Me|5-Cl, 6-Me], the “CX (IC50 in the CX-1 cell line)” value in assay [2] (colonies after 7-10 days) is 0.16 mg/L. Further, the “CV/CX (selectivity, kill ratio)” value in assay [2] is on record as 12.5.
On the same counts, the results for `CCN1C(=CC=Cc2oc3ccc(F)cc3[n+]2CC)Oc2ccc(F)cc21` [drawing 45|5-F|5-F] are “>.32 mg/L” and 10.0.
On the same counts, the results for `CCN1C(=CC=Cc2oc3ccc(OC)cc3[n+]2CC)Oc2ccc(OC)cc21` [drawing 45|5-MeO|5-MeO] are 0.31 mg/L and 5.16.
The matching figures for `CCN1/C(=C/C=C/c2oc3c(-c4ccccc4)cccc3[n+]2CC)Oc2c(-c3ccccc3)cccc21` [drawing 45|7-Ph|7-Ph]: 0.16 mg/L and 5.0.
For `CCN1C(=CC=Cc2oc3ccccc3[n+]2CC)Oc2ccccc21` [drawing 45|H|H], the “CX (IC50 in the CX-1 cell line)” value in assay [2] (colonies after 7-10 days) came out at 0.10 mg/L. In addition, the “CV/CX (selectivity, kill ratio)” value in assay [2] stood at 30.0.
`CCN1/C(=C\C=C\c2[se]c3ccccc3[n+]2CC)Sc2cc(O)c(O)cc21` [drawing 46|Se|S|H|5,6-OH]: the “CX (IC50 in the CX-1 cell line)” value in assay [2] (colonies after 7-10 days) worked out at 0.30 mg/L. Further, the “CV/CX (selectivity, kill ratio)” value in assay [2] is 33.3.
Take `CCN1C(=CC=Cc2sc3cc(O)c(O)cc3[n+]2CC)Oc2ccccc21` [drawing 46|S|O|5,6-OH|H]: in assay [2], the “CV/CX (selectivity, kill ratio)” value came out at 8.0.
For the molecule `CCN1C(=CC=Cc2[te]c3ccccc3[n+]2CC)[Te]c2ccccc21` [drawing 46|Te|Te|H|H], the “CX (IC50 in the CX-1 cell line)” value in assay [2] (colonies after 7-10 days) was determined as 0.30 mg/L. In addition, in assay [2], the “CV/CX (selectivity, kill ratio)” value is reported as 16.7.
The matching figures for `CCN1/C(=C/C=C/c2sc3ccc4ccccc4c3[n+]2CC)Sc2cc(N)ccc21` [drawing 47|NH2]: 0.10 mg/L and 40.
Consider `CCN1C(=CC=c2sc(=Cc3sc4ccccc4[n+]3CC)n(CC)c2=O)Sc2ccccc21` [drawing 51|Et], for which the “CX (IC50 in the CX-1 cell line)” value in assay [2] (colonies after 7-10 days) was 0.07 mg/L. Moreover, in assay [2], the “CV/CX (selectivity, kill ratio)” value was 22.8.
In the case of `CC[n+]1c(/C=C/C=C2\[Te]c3ccc4ccccc4c3N2C)sc2ccccc21` [naphtho/1,2/tellurazole], the CX in assay [2] (setting [8]) stood at 0.10. The CV/CX in assay [2] (setting [7]) is 3.0.
The matching figures for `CC[n+]1c(/C=C/C=C2\Sc3ccc4ccccc4c3N2C)sc2ccccc21` [naphtho/1,2/thiazole (R=E/M)]: 0.300 and 13.3.
The matching figures for `CN1/C(=C/C=C/c2sc3ccccc3[n+]2C)Sc2ccc3ccccc3c21` [naphtho/1,2/thiazole (R=M)]: below 0.005 and 10.0.
`CCN1C(=CC=Cc2sc3ccccc3[n+]2CC)Sc2cc3ccccc3cc21` [naphtho/2,3/thiazole]: the CX in assay [2] (setting [8]) is given as 0.007. The CV/CX in assay [2] (setting [7]) was determined as 57.0.
